Laboratory results taken from US20130157258A1, “HCV NS5B PROTEASE MUTANTS” (VERTEX PHARMACEUTICALS INCORPORATED, priority 2010, published 2013).
“Also recorded” adds a separate entry of the source.

Key:
[1] = tested on: HCV NS5B variants (L419C/M/P/S/V, R422K, M423I/T/V, I482L/N/T, A486I/V, V494A); experiment: Phenotypic analysis of substitutions selected in patients during dosing, replicon system; format: cell-based
Procedure: (§1) Treatment-naïve HCV genotype 1 patients (n=32) were randomized to receive VX-222 at doses of 250 mg BID, 500 mg BID, 750 mg BID, or 1500 mg QD for 3 days, in a treatment:placebo ratio of 6:2 (8 patients/cohort). Pegylated interferon (Peg-IFN) and ribavirin (RBV) for 48 weeks was offered to patients at the end of the study. Sequencing of NS5B was performed at baseline (Day 1), end of dosing (Day 3), and at follow-up timepoints (Days 4, 5, 10, 20, and 60). Phenotypic data (fold change in IC50 from wildtype) of substitutions selected in patients during dosing was determined using a replicon system.

HCV genotype 1 = experiment: Phase Ib/IIa multicenter, randomized, dose-ascending study, 3 days of dosing; format: in vivo, human
Procedure: VX-222 is a non-nucleoside hepatitis C virus (HCV) NS5B polymerase inhibitor with potent in vitro activity. Safety, antiviral activity, and viral sequences were assessed in a phase Ib/IIa multicenter, randomized, dose-ascending study in genotype 1, HCV-infected patients.
as §1

[2] = tested on: HCV NS5B substitution at position 494 (V494A); experiment: Phenotypic analysis in replicon system, substitution at position 494; format: cell-based
Procedure: as §1

[3] = tested on: HCV NS5B substitution at position 423 (M423I/T/V); experiment: Phenotypic analysis in replicon system, substitution at position 423; format: cell-based
Procedure: as §1

[4] = tested on: HCV NS5B substitution at position 482 (I482L/N/T); experiment: Phenotypic analysis in replicon system, substitution at position 482; format: cell-based
Procedure: as §1

[5] = tested on: HCV NS5B substitution at position 419 (L419C/M/P/S/V); experiment: Phenotypic analysis in replicon system, substitution at position 419; format: cell-based
Procedure: as §1

[6] = tested on: HCV NS5B substitution at position 486 (A486I/V); experiment: Phenotypic analysis in replicon system, substitution at position 486; format: cell-based
Procedure: as §1

[7] = tested on: HCV NS5B substitution at position 422 (R422K); experiment: Phenotypic analysis in replicon system, substitution at position 422; format: cell-based
Procedure: as §1

L419M HCV replicon = experiment: HCV replicon cell assay, real-time PCR, L419M; format: cell-based, HCV genotype 1b
From the text: (§2) All mutations were introduced into the pFKI389/NS3-3′/adapt vector (Krieger et al., J. Virol., 75, 4614-4624 (2001); Lohmann et al., J. Virol., 77, 3007-3019 (2003)) by PCR-based site-directed mutagenesis and standard recombinant DNA technologies. The pFKI389/NS3-3′/adapt vector is a “cell culture adapted HCV replicon” containing a R465G mutation within the NS5B gene, and was obtained from Reblikon GmbH, Gau-Odernheim, Germany. The “cell culture adapted replicon” was chosen instead of the wild-type replicon because the R465G mutation was found in all of the progeny RNA isolated from 9.13 replicon cells used in drug susceptibility studies to compare the fold shift in IC50s (described further below). The adaptive R465G mutation in the NS5B region was previously reported (Krieger et al., supra) and found to be very efficient in generating replicon cell colonies after RNA transfection into Huh-7 cells. […]
(§3) The 9.13 replicon cells and the stable recombinant replicon cells were seeded in a 12-well culture dish at a density of 3×10^4 cells/well in a volume of 1 mL. […] The inhibitory effect of agents against wild-type replicon cells, resistant colonies, or recombinant replicon cells was determined by monitoring the levels of HCV RNA, normalized to cellular 18S ribosomal RNA, by real time PCR using the ABI PRISM® 7700 Sequence Detection System (Applied Biosystems, Foster City, Calif., USA). […]

L419S HCV replicon = experiment: HCV replicon cell assay, real-time PCR, L419S resistant colony; format: cell-based; details: Hepatitis C virus, 96 h
Procedure: The 9.13 replicon cells and the stable recombinant replicon cells were seeded in a 12-well culture dish at a density of 3×10^4 cells/well in a volume of 1 mL. The cell culture media used for the assay was DMEM supplemented with 10% fetal bovine serum, 100 IU/mL of penicillin, 100 μg/mL streptomycin, non-essential amino acids, 2 mM glutamine and 10 mM HEPES. After incubating for 3-4 hours, candidate agents (drugs) were added at various concentrations for a final volume of 2 mL of the same culture media. Cells were incubated for 4 days at 37° C. with 5% CO2. Thereafter, total RNA (cellular and viral origin) was extracted using the RNeasy kit (Qiagen Inc.) according to the manufacturer's protocol. cDNA synthesis was performed using the MMLV reverse transcriptase and random hexamer primer (Invitrogen). The inhibitory effect of agents against wild-type replicon cells, resistant colonies, or recombinant replicon cells was determined by monitoring the levels of HCV RNA, normalized to cellular 18S ribosomal RNA, by real time PCR using the ABI PRISM® 7700 Sequence Detection System (Applied Biosystems, Foster City, Calif., USA). […]
(§4) Media and drugs were replaced twice a week over the course of the experiment. Three to four weeks following the initial plating, resistant clones of cells (colonies) were counted and randomly picked for culture or for direct RNA extraction. […]

M423T HCV replicon = experiment: HCV replicon cell assay, real-time PCR, M423T; format: cell-based, HCV genotype 1b
From the text: as §2, §3

M423V HCV replicon = experiment: HCV replicon cell assay, real-time PCR, M423V; format: cell-based, HCV genotype 1b
From the text: as §2, §3

M423I HCV replicon = experiment: HCV replicon cell assay, real-time PCR, M423I; format: cell-based, HCV genotype 1b
From the text: as §2, §3

I482L HCV replicon = experiment: HCV replicon cell assay, real-time PCR, I482L; format: cell-based, HCV genotype 1b
From the text: as §2, §3

A486V HCV replicon = experiment: HCV replicon cell assay, real-time PCR, A486V; format: cell-based, HCV genotype 1b
From the text: as §2, §3

V494A HCV replicon = experiment: HCV replicon cell assay, real-time PCR, V494A; format: cell-based, HCV genotype 1b
From the text: as §2, §3

[8] = tested on: recombinant mutant replicons (L419M, M423V, M423T, M423I, I482L, A486V, V494A); experiment: HCV replicon cell assay, real-time PCR, all seven recombinant mutant replicons; format: cell-based, HCV genotype 1b
From the text: as §2, §3

[9] = tested on: genotype 1b replicon cells (9.13 replicon cells); experiment: Selection of drug-resistant HCV replicon colonies under G418; format: cell-based, HCV genotype 1b
From the text: Drug-resistant HCV replicons were selected as previously described. (See, e.g., Amparo et al., 46th Conference on Antimicrobial Agents and Chemotherapy (ICAAC). 2006, Abstract 1273; Le Pogam et al., J. Virol., 80(12), 6146-54 (2006); Lin et al., J. Biol. Chem., 279(17), 17508-17514 (2004); Lu et al., Antimicrob. Agents Chemother., 48(6), 2260-2266 (2004); Trozzi et al., J. Virol., 77, 3669-3679 (2003)). Briefly, approximately 2.5×10^4 genotype 1a replicon cells (W11.8 replicon cells at passage 13) or genotype 1b replicon cells (9.13 replicon cells at passage greater than 100) were plated in 75 cm^2 cell culture flasks (Falcon 353136) in complete culture medium with high concentration of G418 (600 μg/mL). […]
as §4
Mutant replicons resistant to specific inhibitors were made using replicon constructs expressing the neomycin phosphotransferase gene (NPT). […] Cells containing mutant replicons with decreased sensitivity to an inhibitor give rise to colonies that can be counted, isolated, expanded and characterized.

[10] = 250-750 mg BID or 1500 mg QD for 3 days, patients
[11] = Hepatitis C virus, 96 h, 4 days, HCV RNA by real time PCR

SMILES: NC(=O)c1ncn([C@@H]2O[C@H](CO)[C@@H](O)[C@H]2O)n1 [RBV, ribavirin]
- sensitivity of VX-222-selected variants to the agent ([1]; in vitro): did not have reduced sensitivity; also recorded: remained sensitive

SMILES: CC1CCC(C(=O)N(c2cc(C#CC(C)(C)C)sc2C(=O)O)C2CCC(O)CC2)CC1 (stereo not drawn) [VX-222]
- mean HCV RNA decline (HCV genotype 1; 250 mg (BID), after three days of dosing, treatment-naive genotype 1 patients): 3.1 log 10
- mean HCV RNA decline (HCV genotype 1; 500 mg (BID), after three days of dosing, treatment-naive genotype 1 patients): 3.4 log 10
- mean HCV RNA decline (HCV genotype 1; 750 mg (BID), after three days of dosing, treatment-naive genotype 1 patients): 3.2 log 10
- mean HCV RNA decline (HCV genotype 1; 1500 mg (QD), after three days of dosing, treatment-naive genotype 1 patients): 3.4 log 10
- most common reported adverse effects (AEs) (HCV genotype 1; [10]): diarrhea, headache, nausea, fatigue and fever
- severity of the majority of AEs (HCV genotype 1; [10]): mild in severity
- mean HCV RNA decline (HCV genotype 1; all four dose groups): greater than 3 log 10
- fold change in IC50 from wildtype ([1]; range over all variants selected in patients): 6-80 fold
- fold change in IC50 from wildtype [2]: six
- fold change in IC50 from wildtype [3]: seven to ten
- fold change in IC50 from wildtype [4]: ~26 fold
- fold change in IC50 from wildtype [5]: 20-80 fold
- fold change in IC50 from wildtype [6]: ~50 fold
- fold change in IC50 from wildtype [7]: ~74 fold
- IC50 Fold-Change vs Wild-Type Replicon (L419M HCV replicon): 80 fold and ≈80 fold
- IC50 (L419M HCV replicon; [11]): 900 nM
- IC50 (L419S HCV replicon): > 2000 nM
- IC50 Fold-Change vs Wild-Type Replicon (M423T HCV replicon): 29 fold and ≈29 fold
- IC50 (M423T HCV replicon; [11]): 319 nM
- IC50 Fold-Change vs Wild-Type Replicon (M423V HCV replicon): 10 fold and ≈10 fold
- IC50 (M423V HCV replicon; [11]): 110 nM
- IC50 Fold-Change vs Wild-Type Replicon (M423I HCV replicon): 7.1 fold and ≈7.1 fold
- IC50 (M423I HCV replicon; [11]): 77.2 nM
- IC50 Fold-Change vs Wild-Type Replicon (I482L HCV replicon): ≈26 fold
- IC50 (I482L HCV replicon; [11]): 290 nM
- IC50 Fold-Change vs Wild-Type Replicon (A486V HCV replicon): 50 fold and ≈50 fold
- IC50 (A486V HCV replicon; [11]): 843 nM
- IC50 Fold-Change vs Wild-Type Replicon (V494A HCV replicon): ≈5.9 fold
- IC50 (V494A HCV replicon; [11]): 132 nM
- fold increase of IC50 vs wild-type replicon cells [8]: 6- to 80 fold
- resistant colony formation ([9]; VX-222 concentration of about 300 fold of the IC50, G418 selection): No colony could be readily detected
- frequency of resistant clones ([9]; equivalent IC50-fold concentration of VX-222, genotype 1b vs genotype 1a replicon cell line, not side by side): higher for the genotype 1b replicon cell line than for the genotype 1a replicon cell line
